Drawing on PubChem BioAssay AID449750 (Broad Institute, 2010), this text covers AC50 for 37 compounds.

For orientation: AC50 means the concentration giving half of the maximal activity seen.

Calls of active or inactive are those of the source. No rule for the calls is given here.

A short description of this assay: non-covalent RecA intein splicing inhibitors, dose response, biochemical, cell-free, fluorescence, secondary screen (AID 449750).
`Clc1ncnc2scc(C3COc4ccccc4O3)c12` (configuration not stated): the AC50 was 7.28 µM.

Regarding `O=S(=O)(Nc1ccc(O)c2ccccc12)c1ccc(OC(F)(F)F)cc1`, the AC50 is 0.779 µM.

For the compound `O=C1C(Nc2cccc(O)c2)=C(N2CCCCC2)C(=O)c2ccccc21`, the AC50 was 2.93 µM.

On to `Nc1cc2nn(-c3ccccc3)nc2cc1Cl`, for which the half-maximal activity concentration (AC50) is 7.05 µM.

With `O=C(CSc1nnc(Cc2ccccc2)o1)Nc1cccc(F)c1`, the AC50 is > 38 µM (inactive).

For the compound `CC(=O)N(Cc1ccc(F)cc1)C1=C(NCc2ccccc2)C(=O)c2ccccc2C1=O`, the AC50 is 2.18 µM.

For the compound `Cc1ccccc1CS(=O)(=O)c1ncc(Cl)c(C(=O)Nc2ccc(F)cc2)n1`, the AC50 was > 38 µM (inactive).

For `CN(CCC#N)C(=O)Cn1nc(Cc2ccncc2)c2ccccc2c1=O`, the AC50 was > 38 µM (inactive).

For the compound `Cn1ccnc1Sc1cc(NCCCO)c([N+](=O)[O-])c2nonc12`, the AC50 was > 38 µM (inactive).

`CN1CCc2nc(SCC(=O)Nc3ccc(F)cc3)c(C#N)cc2C1`: the AC50 is > 38 µM (inactive).

`CC1(C)C=C2C(=NN(c3ccccc3)C(N)=C2C#N)CO1`: the AC50 was 3.43 µM.

Turning to `COc1nc(N/N=C/c2ccc(-c3ccccc3[N+](=O)[O-])o2)nc(N2CCOCC2)n1`, the concentration at half-maximal activity (AC50) was 23.2 µM.

With `Cc1nnc(N/N=C\c2ccc(-c3ccccc3[N+](=O)[O-])o2)n1N`, the AC50 is > 38 µM (inactive).

In the case of `CCN(Cc1ccc(OC)c(F)c1)C(=O)CCl`, the AC50 is 11.9 µM.

Consider `CCOC(=O)c1cc2cc3ccccc3cc2[nH]1`, for which the AC50 was > 38 µM (inactive).

Regarding `CN1N=C(C(C)(C)C)CC1=O`, the AC50 was > 38 µM (inactive).

Consider `O=C(Cc1cc(=O)[nH][nH]1)N/N=C/c1ccccc1Cl`, for which the half-maximal activity concentration (AC50) was 15.8 µM.

With `CCOC(=O)C1=C(C)NC2(O)c3ccccc3C(=O)C12O` (configuration not stated), the half-maximal activity concentration (AC50) was 7.53 µM.

Regarding `O=C(c1cccc(C(F)(F)F)c1)C1CCCN(Cc2ncc[nH]2)C1` (configuration not stated), the AC50 was > 38 µM (inactive).

Turning to `COc1cc(/C=C2/C(=O)N(c3ccc([N+](=O)[O-])cc3)N=C2N2CCOCC2)ccc1O`, the AC50 is 31.5 µM.

Turning to `Cc1ccc(Sc2c([N+](=O)[O-])ncn2C)cc1`, the AC50 was > 38 µM (inactive).

Regarding `CCCCn1c(NC(=O)c2ccco2)c(S(=O)(=O)c2ccc(C)cc2)c2nc3ccccc3nc21`, the AC50 was > 38 µM (inactive).

In the case of `Cc1cc(O)ccc1Nc1nc(-c2cccs2)cs1`, the AC50 is 31.7 µM.

In the case of `O=C(Cc1cc(=O)[nH][nH]1)N/N=C/c1c(F)cccc1Cl`, the AC50 is 30.7 µM.

`COc1ccc(/C=C/C(=O)c2ccncc2)c2ccccc12`: the AC50 was 18.6 µM.

For `Cc1nn(-c2ccccc2)c2c1C(c1ccc(F)cc1)C(C#N)=C(N)O2` (configuration not stated), the AC50 was 28.4 µM.

In the case of `Oc1[nH]c2ccccc2c1N=NC(=S)N1CCOCC1`, the AC50 was > 38 µM (inactive).

Take `O=C(CCl)N(c1ccccc1)c1c[nH]c2ccccc12`: the AC50 was 1.46 µM.

Consider `Cc1ccc(C2C(C#N)=C(N)Oc3n[nH]c(-c4cccs4)c32)s1` (configuration not stated), for which the AC50 is 3.32 µM.

In the case of `O=C(O)c1ccc(S(=O)(=O)/N=C2\C=C(Nc3ccccc3F)C(=O)c3ccccc32)cc1`, the AC50 is 0.229 µM.

Regarding `O=C1C(Cl)=C(N2CCCCC2)C(=O)C(Cl)=C1c1cnc(N2CCCCC2)s1`, the AC50 was > 38 µM (inactive).

On to `CCOc1cc(/C=N\NC(=O)OC(C)(C)C)ccc1OC(=O)c1ccco1`, for which the AC50 was > 38 µM (inactive).

Regarding `Cc1ccc([N+](=O)[O-])cc1S(=O)(=O)N(C(=O)c1ccncc1)c1ccc2oc3c(c2c1)CCCC3`, the AC50 was > 38 µM (inactive).

With `Cc1[nH]n(-c2ccccc2)c(=O)c1C(C[N+](=O)[O-])c1ccccc1Cl` (configuration not stated), the AC50 is 7.38 µM.

As to `COc1ccc(-c2cc(C(=O)n3cnc4ccccc43)c3ccccc3n2)cc1`, the AC50 is > 38 µM (inactive).

In the case of `CC(C)(C)c1cc(C(=O)CCN2CCOCC2)cc(C(C)(C)C)c1O`, the AC50 was 12.1 µM.

For `COc1ccc(/C(=N/OC(C)=O)c2nccc3cc(OC)c(OC)cc23)cc1OC`, the AC50 is > 38 µM (inactive).
